Source: ChEMBL document CHEMBL4311999, “3-Hydrazinoisatin-based benzenesulfonamides as novel carbonic anhydrase inhibitors endowed with anticancer activity: Synthesis, in vitro biological evaluation and in silico insights” (Eur J Med Chem, 2019)

How the values were obtained:
[1] = tested on: SF-268; assay: Growth inhibition of human SF268 cells at 10 uM incubated for 48 hrs by sulforhodamine B assay relative to control; type: functional; details: SF-268, 48 h, read-out: GI
[2] = tested on: NCI-H522; assay: Growth inhibition of human NCI-H522 cells at 10 uM incubated for 48 hrs by sulforhodamine B assay relative to control; type: functional; details: NCI-H522, 48 h, read-out: GI
[3] = tested on: 786-0; assay: Growth inhibition of human 786-0 cells at 10 uM incubated for 48 hrs by sulforhodamine B assay relative to control; type: functional; details: 786-0, 48 h, read-out: GI
[4] = biological target: Carbonic anhydrase 9 (Homo sapiens, UniProt Q16790); assay: Inhibition of recombinant human carbonic anhydrase 9 preincubated for 15 mins by phenol red dye based stopped flow CO2 hydration assay
[5] = tested on: UACC-62; assay: Growth inhibition of human UACC62 cells at 10 uM incubated for 48 hrs by sulforhodamine B assay relative to control; type: functional; details: UACC-62, 48 h, read-out: GI
[6] = tested on: SNB-75; assay: Growth inhibition of human SNB75 cells at 10 uM incubated for 48 hrs by sulforhodamine B assay relative to control; type: functional; details: SNB-75, 48 h, read-out: GI
[7] = tested on: CAKI-1; assay: Growth inhibition of human Caki1 cells at 10 uM incubated for 48 hrs by sulforhodamine B assay relative to control; type: functional; details: CAKI-1, 48 h, read-out: GI
[8] = tested on: Hs-578T; assay: Growth inhibition of human Hs 578T cells at 10 uM incubated for 48 hrs by sulforhodamine B assay relative to control; type: functional; details: read-out: GI
[9] = tested on: PC-3; assay: Growth inhibition of human PC3 cells at 10 uM incubated for 48 hrs by sulforhodamine B assay relative to control; type: functional; details: PC-3, 48 h, read-out: GI
[10] = tested on: SR; assay: Growth inhibition of human SR cells at 10 uM incubated for 48 hrs by sulforhodamine B assay relative to control; type: functional; details: read-out: GI
[11] = tested on: T47D; assay: Growth inhibition of human T47D cells at 10 uM incubated for 48 hrs by sulforhodamine B assay relative to control; type: functional; details: read-out: GI
[12] = tested on: HCT-116; assay: Growth inhibition of human HCT116 cells at 10 uM incubated for 48 hrs by sulforhodamine B assay relative to control; type: functional; details: HCT-116, 48 h, read-out: GI
[13] = tested on: SF-539; assay: Growth inhibition of human SF539 cells at 10 uM incubated for 48 hrs by sulforhodamine B assay relative to control; type: functional; details: SF-539, 48 h, read-out: GI
[14] = tested on: A549; assay: Growth inhibition of human A549/ATCC cells at 10 uM incubated for 48 hrs by sulforhodamine B assay relative to control; type: functional; details: A549, 48 h, read-out: GI
[15] = tested on: ACHN; assay: Growth inhibition of human ACHN cells at 10 uM incubated for 48 hrs by sulforhodamine B assay relative to control; type: functional; details: read-out: GI
[16] = tested on: OVCAR-8; assay: Growth inhibition of human OVCAR8 cells at 10 uM incubated for 48 hrs by sulforhodamine B assay relative to control; type: functional; details: OVCAR-8, 48 h, read-out: GI
[17] = tested on: NCI/ADR-RES; assay: Growth inhibition of human NCI/ADR-RES cells at 10 uM incubated for 48 hrs by sulforhodamine B assay relative to control; type: functional; details: read-out: GI
[18] = biological target: Carbonic anhydrase 1 (Homo sapiens, UniProt P00915); assay: Inhibition of recombinant human carbonic anhydrase 1 preincubated for 15 mins by phenol red dye based stopped flow CO2 hydration assay
[19] = tested on: MDA-MB-468; assay: Growth inhibition of human MDA-MB-468 cells at 10 uM incubated for 48 hrs by sulforhodamine B assay relative to control; type: functional; details: MDA-MB-468, 48 h, read-out: GI
[20] = tested on: NCI-H226; assay: Growth inhibition of human NCI-H226 cells at 10 uM incubated for 48 hrs by sulforhodamine B assay relative to control; type: functional; details: NCI-H226, 48 h, read-out: GI
[21] = tested on: RPMI-8226; assay: Growth inhibition of human RPMI8226 cells at 10 uM incubated for 48 hrs by sulforhodamine B assay relative to control; type: functional; details: RPMI-8226, 48 h, read-out: GI
[22] = tested on: CCRF-CEM; assay: Growth inhibition of human CCRF-CEM cells at 10 uM incubated for 48 hrs by sulforhodamine B assay relative to control; type: functional; details: read-out: GI
[23] = tested on: MOLT-4; assay: Growth inhibition of human MOLT4 cells at 10 uM incubated for 48 hrs by sulforhodamine B assay relative to control; type: functional; details: MOLT-4, 48 h, read-out: GI
[24] = tested on: UO-31; assay: Growth inhibition of human UO31 cells at 10 uM incubated for 48 hrs by sulforhodamine B assay relative to control; type: functional; details: UO-31, 48 h, read-out: GI
[25] = tested on: SK-MEL-5; assay: Growth inhibition of human SK-MEL-5 cells at 10 uM incubated for 48 hrs by sulforhodamine B assay relative to control; type: functional; details: SK-MEL-5, 48 h, read-out: GI
[26] = tested on: MCF7; assay: Growth inhibition of human MCF7 cells at 10 uM incubated for 48 hrs by sulforhodamine B assay relative to control; type: functional; details: MCF7, 48 h, read-out: GI
[27] = tested on: SNB-19; assay: Growth inhibition of human SNB19 cells at 10 uM incubated for 48 hrs by sulforhodamine B assay relative to control; type: functional; details: SNB-19, 48 h, read-out: GI
[28] = tested on: NCI-H460; assay: Growth inhibition of human NCI-H460 cells at 10 uM incubated for 48 hrs by sulforhodamine B assay relative to control; type: functional; details: NCI-H460, 48 h, read-out: GI
[29] = tested on: OVCAR-5; assay: Growth inhibition of human OVCAR5 cells at 10 uM incubated for 48 hrs by sulforhodamine B assay relative to control; type: functional; details: OVCAR-5, 48 h, read-out: GI
[30] = tested on: MDA-MB-231; assay: Growth inhibition of human MDA-MB-231 cells at 10 uM incubated for 48 hrs by sulforhodamine B assay relative to control; type: functional; details: MDA-MB-231, 48 h, read-out: GI
[31] = tested on: OVCAR-4; assay: Growth inhibition of human OVCAR4 cells at 10 uM incubated for 48 hrs by sulforhodamine B assay relative to control; type: functional; details: OVCAR-4, 48 h, read-out: GI
[32] = tested on: RXF 393; assay: Growth inhibition of human RXF393 cells at 10 uM incubated for 48 hrs by sulforhodamine B assay relative to control; type: functional; details: RXF 393, 48 h, read-out: GI

Chain of Carbonic anhydrase 1 (P00915 whole entry): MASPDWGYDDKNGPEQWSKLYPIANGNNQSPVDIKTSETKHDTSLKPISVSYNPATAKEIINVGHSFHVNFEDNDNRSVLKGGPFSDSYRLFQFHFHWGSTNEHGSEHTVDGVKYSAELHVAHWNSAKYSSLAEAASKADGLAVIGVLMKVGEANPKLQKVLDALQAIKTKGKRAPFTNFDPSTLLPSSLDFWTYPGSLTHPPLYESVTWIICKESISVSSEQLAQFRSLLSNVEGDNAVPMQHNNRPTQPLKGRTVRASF

SMILES: NS(=O)(=O)c1ccc(N/N=C2\C(=O)N(Cc3ccccc3)c3ccc(Br)cc32)cc1
- inhibition of growth at 10 µM [1]: 13%
- inhibition of growth at 10 µM [2]: 29%
- inhibition of growth at 10 µM [3]: 19%
- Ki [4]: 60.5 nM
- inhibition of growth at 10 µM [5]: 30%
- inhibition of growth at 10 µM [6]: 46%
- inhibition of growth at 10 µM [7]: 18%
- inhibition of growth at 10 µM [8]: 27%
- inhibition of growth at 10 µM [9]: 21%
- inhibition of growth at 10 µM [10]: 20%
- inhibition of growth at 10 µM [11]: 19%
- inhibition of growth at 10 µM [12]: 24%
- inhibition of growth at 10 µM [13]: 25%
- inhibition of growth at 10 µM [14]: 19%
- inhibition of growth at 10 µM [15]: 22%
- inhibition of growth at 10 µM [16]: 26%
- inhibition of growth at 10 µM [17]: 13%
- Ki [18]: > 10000 nM
- inhibition of growth at 10 µM [19]: 13%
- inhibition of growth at 10 µM [20]: 33%
- inhibition of growth at 10 µM [21]: 10%
- inhibition of growth at 10 µM [22]: 19%
- inhibition of growth at 10 µM [23]: 21%
- inhibition of growth at 10 µM [24]: 18%
- inhibition of growth at 10 µM [25]: 17%
- inhibition of growth at 10 µM [26]: 23%
- inhibition of growth at 10 µM [27]: 27%
- inhibition of growth at 10 µM [28]: 20%
- inhibition of growth at 10 µM [29]: 12%
- inhibition of growth at 10 µM [30]: 23%
- inhibition of growth at 10 µM [31]: 19%
- inhibition of growth at 10 µM [32]: 38%
